# Experiment: Estimated solubility of the salt in organic solvents
# Type: physicochemical
# Experimental: (b) The Form B salt described in (a) above was also prepared by dissolving, in a vial, 20% w of a sample of the benzoate salt prepared by the method of Example 1(b) (Form A) in a solvent such as methanol (>20 mg/ml), ethanol (>20 mg/ml), n-propanol (>20 mg/ml), isopropanol (8.5 mg/ml) or acetone (9.6 mg/ml). The figures in brackets indicate the estimated solubility of the salt in these solvents. The vial was then sealed and the suspension was homogenised at ambient temperature (20° C.) using a magnet. Stirring and temperature were maintained for a period of at least 7 days after which time a sample of the material obtained was dried and tested by XRPD. XRPD confirmed that there had been complete transformation of Form A to Form B.
# (a) Form B was prepared by dissolving, in a vial, 20% w of a sample of the furoate salt prepared by the method of Example 1(b) (Form A) in a solvent such as ethanol (16 mg/ml) or 2-butanol (8 mg/ml). The figures in brackets indicate the estimated solubility of the salt in these solvents. The vial was then sealed and the suspension was homogenised at ambient temperature (20° C.) using a magnet. Stirring and temperature were maintained for a period of at least 7 days after which time a sample of the material obtained was dried and tested by XRPD. XRPD confirmed that there had been complete transformation of Form A to Form B.
estimated solubility of the salt (2-butanol) [mg/mL],estimated solubility of the salt (ethanol) [mg/mL],estimated solubility of the salt (acetone) [mg/mL],estimated solubility of the salt (isopropanol) [mg/mL],estimated solubility of the salt (methanol) [mg/mL],estimated solubility of the salt (n-propanol) [mg/mL],SMILES
8,16,,,,,"CC(=O)Nc1ccc(O)cc1OC[C@@](C)(O)CNC1CCN(Cc2ccc(Cl)cc2)CC1.O=C(O)c1ccco1 [1(c), N-{2-[((2S)-3-{[1-(4-chlorobenzyl)piperidin-4-yl]amino}-2-hydroxy-2-methylpropyl)oxy]-4-hydroxyphenyl}acetamide furoate (1:1 Salt), Form A]"
,> 20,9.6,8.5,> 20,> 20,"CC(=O)Nc1ccc(O)cc1OC[C@@](C)(O)CNC1CCN(Cc2ccc(Cl)cc2)CC1.O=C(O)c1ccccc1 [Example 1(b), N-{2-[((2S)-3-{[1-(4chlorobenzyl)piperidin-4-yl]amino}-2-hydroxy-2-methylpropyl)oxy]-4-hydroxyphenyl}acetamide benzoate (1:1 Salt), Form A]"

# From patent publication US20090298875A1, “A Combination of Compounds, Which Can be Used in the Treatment of Respiratory Diseases, Especially Chronic Obstructive Pulmonary Disease (COPD) and Asthma” (ASTRAZENECA AB, priority 2005, published 2009)
